{"source": "patent US9340616B2", "about": "“Methods and compositions for heptameric targeting ligands” (The University of North Carolina at Chapel Hill, priority 2011, dated 2016)", "key": {"[1]": {"system": "HER2-positive SK-OV3 cells", "test": "MTS cell proliferation assay, SK-OV3", "assay_type": "cell-based", "settings": "10 μM, 24 h, positive control", "experimental": "(§1) FIGS. 10A-C. Cellular toxicity of heptameric molecules. A) A431 (EGFR), B) SK-OV3 (HER2), and C) LNCaP cells were incubated with 1 uM of each of the heptamer molecules for 24 hours at 37° C. Cisplatin (10 uM) was also incubated with each of the cells as a positive control. Cells without incubation with any proteins or cisplatin were used as a negative control.\n(§2) A CellTiter96 Aqueous Non-Radioactive Cell Proliferation Assay kit from Promega (Madison, Wis.) was used for MTS assay. Approximately 10^4 cells were seeded on each well in a 96-well plate and grown for 16 hours at 37° C. Each heptameric molecule was incubated with the cells for 24 hours and Cis-platinum (II) diamine dichloride (cisplatin, CDDP) (Sigma-Aldrich Chemical Co) was used as positive control. 20 μl of MTS/PMS solution was added into each well followed by incubation for 4 hours at 37° C. The absorbance at 490 nm was recorded using an ELISA plate reader.\n(§3) A CellTiter96 Aqueous Non-Radioactive Cell Proliferation Assay kit from Promega (Madision, Wis.) was used for the MTS assay. Approximately 1×10^4 cells were seeded in each well of a 96-well plate and grown for 16 h at 37° C. Each heptameric molecule was incubated with the cells for 24 h. 10 μM Cis-platinum (II) diamine dichloride (Sigma-Aldrich Chemical Co, St Louis, Mo.) was used as a positive control. […] The absorbance at 490 nm was recorded using an ELISA plate reader."}, "EGFR-positive A431 cells": {"system": "EGFR-positive A431 cells", "test": "MTS cell proliferation assay, A431", "assay_type": "cell-based", "settings": "10 μM, 24 h, positive control", "experimental": "as §1, §2, §3"}}}
{"smiles": "N.N.[Cl][Pt][Cl]", "note": "[cisplatin, Cis-platinum (II) diamine dichloride]", "values": [{"measurement": "cell proliferation inhibited to", "setting": "[1]", "value": 50, "unit": "%"}, {"measurement": "cell proliferation inhibited to", "setting": "EGFR-positive A431 cells", "value": 50, "unit": "%"}]}
